Where a name gives a salt, the structure may show the parent alone.
Type: physicochemical
Conditions: Log10(concentration in octanol phase/concentration in aqueous phase)
From the text: Incidentally, the octanol-water partition coefficient herein is obtained by adding a target component to be measured into a flask charged with n-octanol and an aqueous buffer of pH 7 or water, shaking the resultant, and performing calculation, in accordance with the following equation, based on active ingredient concentrations in respective phases. Octanol-water partition coefficient=Log10(concentration in octanol phase/concentration in aqueous phase)

SMILES	water-octanol partition coefficient
CC(C)CCCCCCCOC(=O)C(C)(C)C [isodecyl neopentanoate]	5.9
CC(C)CCCCCCOC(=O)CCCCCC(C)C [isononyl isononanoate]	6.5
CCCCCCCCCCCCCC(=O)OC(C)C [isopropyl myristate]	7.2
CC(C)CCCCCCCCCCOC(=O)CCCCCC(C)C [isotridecyl isononanoate]	9.2
CC12CC3CC(C)(C1)CC(N)(C3)C2 [memantine hydrochloride, reference compound]	0.3
CC(C)CCCCCC(=O)OCC(C)(C)COC(=O)CCCCCC(C)C [neopentyl glycol diisononanoate]	7.2
CCCCCCCCCCCCCC(=O)OCC(CCCCCCCC)CCCCCCCCCC (centres unmarked) [octyldodecyl myristate]	16.0
O.O.O.O.O.O=P([O-])(O)C(O)(Cc1cccnc1)P(=O)(O)O.O=P([O-])(O)C(O)(Cc1cccnc1)P(=O)(O)O.[Na+].[Na+] [risedronate monosodium hemipentahydrate, reference compound]	−5.0
CC(C)CCCC(C)CCCC(C)CCCCC(C)CCCC(C)CCCC(C)C (centres unmarked) [squalane]	14.7
CCCCC(CC)C(=O)OCC(COC(=O)C(CC)CCCC)OC(=O)C(CC)CCCC (centres unmarked) [triethylhexanoin]	8.9
CCCc1nc(C)c2c(=O)[nH]c(-c3cc(S(=O)(=O)N4CCN(CC)CC4)ccc3OCC)nn12 [verdenafil hydrochloride hydrate, reference compound]	0.0

Source: US10130710B2 (priority 2014, dated 2018)
